# According to patent US20250295798A1, “LIGAND-DRUG CONJUGATE OF EXATECAN ANALOGUE, AND MEDICAL USE THEREOF” (BeiGene Switzerland GmbH, priority 2022, published 2025):
# Where a name gives a salt, the structure may show the parent alone.
# Key:
# A375 = assay: Compounds cellular killing in A375; type: cell-based, human; details: Homo sapiens, A375, 6 days, Cell Titer-Glo
# Protocol: (§1) Seeding cells A375 (1E3/well) or Calu-6 (2E3/well) into 96-well plate (Greiner: 655090), 100 ul/well. Incubation at 37° C., 5% CO2, overnight.
# (§2) Adding the fresh growth-medium containing the varying concentrations of compounds, 50 ul/well.
# (§3) Incubation at 37° C., 5% CO2, 6 days.
# (§4) The cell viability detected by Cell Titer-Glo (Promega, G7573). Add 70 µL/well of CellTiter-Glo® Reagent in each well.
# (§5) Allow the plates to incubate at room temperature for 10 minutes to stabilize luminescent signal.
# (§6) Analyze with Microplate Reader.
# (§7) Seeding cells A375 ([…] or Calu-6 (2E3/well) into 96-well plate (Greiner: 655090), 100 ul/well. Incubation at 37° C., […], overnight.
# Calu-6 = assay: Compounds cellular killing in Calu-6; type: cell-based, human; details: Homo sapiens, Calu-6, 6 days, Cell Titer-Glo
# Protocol: as §1, §2, §3, §4, §5, §6, §7
compound,measurement,setting,value
"CC[C@@]1(O)C(=O)OCc2c1cc1n(c2=O)Cc2c-1nc1cc(F)c(Cl)c3c1c2[C@@H](N)CC3 [Example 1-26, ((1S,9S)-1-amino-4-chloro-9-ethyl-5-fluoro-9-hydroxy-1,2,3,9,12,15-hexahydro-10H,13H-benzo[de]pyrano[3′,4′:6,7]indolizino[1,2-b]quinoline-10,13-dione 2,2,2-trifluoroacetate salt]",EC50,"A375; A-375, […]",1 nM
same,Emax,"A375; A-375, […]",98.1%
same,EC50,"Calu-6; Calu-6, […]",0.3 nM
same,Emax,"Calu-6; Calu-6, […]",98.1%
"CC[C@@]1(O)C(=O)OCc2c1cc1n(c2=O)Cc2c-1nc1cc(F)c(C)c3c1c2C(C(=O)N1CCC1CO)CC3 (stereo partly drawn) [Example 2-47, (9S)-9-ethyl-5-fluoro-9-hydroxy-1-(2-(hydroxymethyl)azetidine-1-carbonyl)-4-methyl-1,2,3,9,12,15-hexahydro-10H,13H-benzo[de]pyrano[3′,4′:6,7]indolizino[1,2-b]quinoline-10,13-dione]",EC50,"A375; A-375, […]",6.7 nM
same,Emax,"A375; A-375, […]",99.7%
same,EC50,"Calu-6; Calu-6, […]",1.8 nM
same,Emax,"Calu-6; Calu-6, […]",99.5%
"CC[C@@]1(O)C(=O)OCc2c1cc1n(c2=O)Cc2c-1nc1cc(Cl)cc3c1c2[C@@H](N)CC3 [Example 1-14, (1S,9S)-1-amino-5-chloro-9-ethyl-9-hydroxy-1,2,3,9,12,15-hexahydro-10H,13H-benzo[de]pyrano[3′,4′:6,7]indolizino[1,2-b]quinoline-10,13-dione]",EC50,A375; A-375,2.5 nM
same,Emax,A375; A-375,100%
same,Emax,"Calu-6; Calu-6, […]",98.8%
same,EC50,Calu-6,0.8 nM
"CC[C@@]1(O)C(=O)OCc2c1cc1n(c2=O)Cc2c-1nc1cc(Cl)cc3c1c2[C@@H](NC(=O)CO)CC3 [Example 2-12, N-((1S,9S)-5-chloro-9-ethyl-9-hydroxy-10,13-dioxo-2,3,9,10,13,15-hexahydro-1H,12H-benzo[de]pyrano[3′,4′:6,7]indolizino[1,2-b]quinolin-1-yl)-2-hydroxyacetamide]",EC50,"A375; A-375, […]",6.8 nM
same,Emax,"A375; A-375, […]",99.9%
same,EC50,"Calu-6; Calu-6, […]",4.4 nM
same,Emax,"Calu-6; Calu-6, […]",98.9%
"CC[C@@]1(O)C(=O)OCc2c1cc1n(c2=O)Cc2c-1nc1cc(Cl)c(C)c3c1c2[C@@H](NC(=O)CO)CC3 [Example 2-7, N-((1S,9S)-5-chloro-9-ethyl-9-hydroxy-4-methyl-10,13-dioxo-2,3,9,10,13,15-hexahydro-1H,12H-benzo[de]pyrano[3′,4′:6,7]indolizino[1,2-b]quinolin-1-yl)-2-hydroxyacetamide]",EC50,"A375; A-375, […]",2 nM
same,Emax,"A375; A-375, […]",99.1%
same,EC50,"Calu-6; Calu-6, […]",0.7 nM
same,Emax,"Calu-6; Calu-6, […]",99.1%
"CC[C@@]1(O)C(=O)OCc2c1cc1n(c2=O)Cc2c-1nc1cc(F)c(C)c3c1c2C(CCCCO)CC3 (stereo partly drawn) [Example 2-48, (9S)-9-ethyl-5-fluoro-9-hydroxy-1-(4-hydroxybutyl)-4-methyl-1,2,3,9,12,15-hexahydro-10H,13H-benzo[de]pyrano[3′,4′:6,7]indolizino[1,2-b]quinoline-10,13-dione]",EC50,"A375; A-375, […]",0.4 nM
same,Emax,"A375; A-375, […]",99.5%
same,EC50,"Calu-6; Calu-6, […]",0.1 nM
same,Emax,"Calu-6; Calu-6, […]",98.7%
"CC[C@@]1(O)C(=O)OCc2c1cc1n(c2=O)Cc2c-1nc1cc(F)c(C)c3c1c2C(CNCCCO)CC3 (stereo partly drawn) [Example 2-55, (9S)-9-ethyl-5-fluoro-9-hydroxy-1-(((3-hydroxypropyl)amino)methyl)-4-methyl-1,2,3,9,12,15-hexahydro-10H,13H-benzo[de]pyrano[3′,4′:6,7]indolizino[1,2-b]quinoline-10,13-dione]",EC50,"A375; A-375, […]",7.3 nM
same,Emax,"A375; A-375, […]",99.8%
same,EC50,"Calu-6; Calu-6, […]",2.8 nM
same,Emax,"Calu-6; Calu-6, […]",99.3%
"CC[C@@]1(O)C(=O)OCc2c1cc1n(c2=O)Cc2c-1nc1cc(F)c(C)c3c1c2[C@@H](NC(=O)CC(O)C[N+](C)(C)C)CC3 (stereo partly drawn) [Example 2-16, 4-(((1S,9S)-9-ethyl-5-fluoro-9-hydroxy-4-methyl-10,13-dioxo-2,3,9,10,13,15-hexahydro-1H,12H-benzo[de]pyrano[3′,4′:6,7]indolizino[1,2-b]quinolin-1-yl)amino)-2-hydroxy-N,N,N-trimethyl-4-oxobutan-1-aminium]",EC50,"A375; A-375, […]",487 nM
same,Emax,"A375; A-375, […]",77.1%
same,EC50,"Calu-6; Calu-6, […]",247 nM
same,Emax,"Calu-6; Calu-6, […]",87.9%
"CC[C@@]1(O)C(=O)OCc2c1cc1n(c2=O)Cc2c-1nc1cc(F)c(C)c3c1c2[C@@H](n1cc(CO)nn1)CC3 [Example 2-22, (1S,9S)-9-ethyl-5-fluoro-9-hydroxy-1-(4-(hydroxymethyl)-1H-1,2,3-triazol-1-yl)-4-methyl-1,2,3,9,12,15-hexahydro-10H,13H-benzo[de]pyrano[3′,4′:6,7]indolizino[1,2-b]quinoline-10,13-dione]",EC50,"A375; A-375, […]",10.4 nM
same,Emax,"A375; A-375, […]",97.7%
same,EC50,"Calu-6; Calu-6, […]",5.6 nM
same,Emax,"Calu-6; Calu-6, […]",98%
"CC[C@@]1(O)C(=O)OCc2c1cc1n(c2=O)Cc2c-1nc1cc(F)c(C)c3c1c2[C@@H](NC(=O)C(F)(F)CO)CC3 [Example 2-3, N-((1S,9S)-9-ethyl-5-fluoro-9-hydroxy-4-methyl-10,13-dioxo-2,3,9,10,13,15-hexahydro-1H,12H-benzo[de]pyrano[3′,4′:6,7]indolizino[1,2-b]quinolin-1-yl)-2,2-difluoro-3-hydroxypropanamide]",EC50,"A375; A-375, […]",2.1 nM
same,Emax,"A375; A-375, […]",100%
same,EC50,"Calu-6; Calu-6, […]",0.8 nM
same,Emax,"Calu-6; Calu-6, […]",98.5%
"CC[C@@]1(O)C(=O)OCc2c1cc1n(c2=O)Cc2c-1nc1cc(F)c(C)c3c1c2[C@@H](NC(=O)c1ccc(CO)o1)CC3 [Example 2-19, N-((1S,9S)-9-ethyl-5-fluoro-9-hydroxy-4-methyl-10,13-dioxo-2,3,9,10,13,15-hexahydro-1H,12H-benzo[de]pyrano[3′,4′:6,7]indolizino[1,2-b]quinolin-1-yl)-5-(hydroxymethyl)furan-2-carboxamide]",EC50,A375; A-375,4.6 nM
same,Emax,A375; A-375,99.7%
same,Emax,"Calu-6; Calu-6, […]",99.3%
same,EC50,Calu-6,1 nM
"CC[C@@]1(O)C(=O)OCc2c1cc1n(c2=O)Cc2c-1nc1cc(C)c(C)c3c1c2[C@@H](NC(=O)CO)CC3 [Example 2-1, N-((1S,9S)-9-ethyl-9-hydroxy-4,5-dimethyl-10,13-dioxo-2,3,9,10,13,15-hexahydro-1H,12H-benzo[de]pyrano[3′,4′:6,7]indolizino[1,2-b]quinolin-1-yl)-2-hydroxyacetamide]",EC50,"A375; A-375, […]",23 nM
same,Emax,"A375; A-375, […]",98%
same,EC50,"Calu-6; Calu-6, […]",10 nM
same,Emax,"Calu-6; Calu-6, […]",98%
"CC[C@@]1(O)C(=O)OCc2c1cc1n(c2=O)Cc2c-1nc1cc(F)c(OC)c3c1c2[C@@H](NC(=O)CO)CC3 [Example 2-4, N-((1S,9S)-9-ethyl-5-fluoro-9-hydroxy-4-methoxy-10,13-dioxo-2,3,9,10,13,15-hexahydro-1H,12H-benzo[de]pyrano[3′,4′:6,7]indolizino[1,2-b]quinolin-1-yl)-2-hydroxyacetamide]",EC50,"A375; A-375, […]",18 nM
same,Emax,"A375; A-375, […]",99.3%
same,EC50,"Calu-6; Calu-6, […]",4.9 nM
same,Emax,"Calu-6; Calu-6, […]",99.7%
"CC[C@@]1(O)C(=O)OCc2c1cc1n(c2=O)Cc2c-1nc1cc(F)c(C)c3c1c2[C@@H](NC(=O)C(O)(C(F)(F)F)C(F)(F)F)CC3 [Example 2-21, N-((1S,9S)-9-ethyl-5-fluoro-9-hydroxy-4-methyl-10,13-dioxo-2,3,9,10,13,15-hexahydro-1H,12H-benzo[de]pyrano[3′,4′:6,7]indolizino[1,2-b]quinolin-1-yl)-3,3,3-trifluoro-2-hydroxy-2-(trifluoromethyl)propenamide]",EC50,"A375; A-375, […]",4.5 nM
same,Emax,"A375; A-375, […]",98.3%
same,EC50,"Calu-6; Calu-6, […]",0.4 nM
same,Emax,"Calu-6; Calu-6, […]",96.7%
"CC[C@@]1(O)C(=O)OCc2c1cc1n(c2=O)Cc2c-1nc1cc(F)c(C)c3c1c2[C@@H](n1cc(CCO)nn1)CC3 [Example 2-23, (1S,9S)-9-ethyl-5-fluoro-9-hydroxy-1-(4-(2-hydroxyethyl)-1H-1,2,3-triazol-1-yl)-4-methyl-1,2,3,9,12,15-hexahydro-10H,13H-benzo[de]pyrano[3′,4′:6,7]indolizino[1,2-b]quinoline-10,13-dione]",EC50,"A375; A-375, […]",3.3 nM
same,Emax,"A375; A-375, […]",99.9%
same,EC50,"Calu-6; Calu-6, […]",1.9 nM
same,Emax,"Calu-6; Calu-6, […]",98.9%
"CC[C@@]1(O)C(=O)OCc2c1cc1n(c2=O)Cc2c-1nc1cc(F)cc3c1c2[C@@H](N)CC3 [Example 1-22, (1S,9S)-1-amino-9-ethyl-5-fluoro-9-hydroxy-1,2,3,9,12,15-hexahydro-10H,13H-benzo[de]pyrano[3′,4′:6,7]indolizino[1,2-b]quinoline-10,13-dione methanesulfonate]",EC50,"A375; A-375, […]",1.4 nM
same,Emax,"A375; A-375, […]",100%
same,EC50,"Calu-6; Calu-6, […]",0.6 nM
same,Emax,"Calu-6; Calu-6, […]",99.2%
"CC[C@@]1(O)C(=O)OCc2c1cc1n(c2=O)Cc2c-1nc1cc(F)c(C)c3c1c2[C@@H](NC(=O)C[C@@H](O)C[N+](C)(C)C)CC3 [Example 2-15, (R)-4-(((1S,9S)-9-ethyl-5-fluoro-9-hydroxy-4-methyl-10,13-dioxo-2,3,9,10,13,15-hexahydro-1H,12H-benzo[de]pyrano[3′,4′:6,7]indolizino[1,2-b]quinolin-1-yl)amino)-2-hydroxy-N,N,N-trimethyl-4-oxobutan-1-aminium]",EC50,"A375; A-375, […]",442 nM
same,Emax,"A375; A-375, […]",73.5%
same,EC50,"Calu-6; Calu-6, […]",179 nM
same,Emax,"Calu-6; Calu-6, […]",90.1%
"CC[C@@]1(O)C(=O)OCc2c1cc1n(c2=O)Cc2c-1nc1cc(F)c(F)c3c1c2[C@@H](NC(=O)CO)CC3 [Example 2-30, N-((1S,9S)-9-ethyl-4,5-difluoro-9-hydroxy-10,13-dioxo-2,3,9,10,13,15-hexahydro-1H,12H-benzo[de]pyrano[3′,4′:6,7]indolizino[1,2-b]quinolin-1-yl)-2-hydroxyacetamide]",EC50,"A375; A-375, […]",1.2 nM
same,Emax,"A375; A-375, […]",98.9%
same,EC50,"Calu-6; Calu-6, […]",0.7 nM
same,Emax,"Calu-6; Calu-6, […]",98.9%
